# In US10493029B2, “Ziyuglycoside II polymer micelle and preparative methods thereof” (SICHUAN INLU WEITE PHARMACEUTICAL TECHNOLOGY CO., LTD., priority 2016, dated 2019):
# Tested on: bone marrow suppression induced by cyclophosphamide in KM-mice
# Experiment: Pharmacodynamic experiment: cyclophosphamide-induced bone marrow suppression, peripheral blood counts
# Type: in vivo
# Protocol: 1. Experimental Materials, Reagents, Apparatus
# Test drugs were ziyuglycoside II micelles and ziyuglycoside II powder.
# Tool drug was cyclophosphamide.
# Laboratory animals were KM-mice: 18.5-22.5 g.
# Laboratory apparatus: Automatic blood counting analyzer; BS-600L electronic balance: specification: 600 g/0.1 g, Shanghai Yousheng Weighing Apparatus Co. Ltd.
# Statistical analysis was performed using SPSS 17.0 software. Data were expressed as mean±standard error (x±S), and one-factor analysis of variance was used among groups. For homogeneity of variance, data between groups were compared by LSD test, while for heterogeneity of variance, data between groups were compared by Tamhane's T2 test.
# After all animals were adaptively fed for one week, according to the body weight, animals were randomly divided as blank group; model group; ziyuglycoside II micelle sample groups 1-4 (respectively using micelles prepared in examples 1-4), with a dosage of 2.5 mg·kg^−1, preparation before use; ziyuglycoside II group: powder of ziyuglycoside II raw materials, dissolved in 10% DMSO-normal saline, with a dosage of 2.5 mg·kg^−1, preparation before use. On the first day of experiment, except for blank group, mice in other groups received cyclophosphamide normal saline solution at a dose of 120 mg·kg^−1 by peritoneal injection, and mice in blank group received the same volume of normal saline by peritoneal injection.
# From the first day of experiment, each experimental group was given the corresponding drug as the predetermined dosage and administration mode, and mice in blank group and model group were given a same volume of normal saline by injection into the tail vein, for successive 6 days.
# On the seventh day of experiment, whole blood was collected from orbit of mice in each experimental group, and placed in 0.5 ml EP tubes containing EDTA anticoagulant agent for test.
# White blood cells (WBC), neutrophilic granulocytes (NEUT), red blood cells (RBC), platelets (PLT), and hemoglobin (HGB) in peripheral blood of mice in each experimental group were counted using automatic blood counting instrument.
# [1] = cyclophosphamide 120 mg/kg i.p. day 1, drug 2.5 mg/kg for 6 days, blood on day 7, mean±standard error
compound,measurement,setting,value
"C[C@@H]1CC[C@]2(C(=O)O)CC[C@]3(C)C(=CC[C@@H]4[C@@]5(C)CC[C@H](O[C@@H]6OC[C@H](O)[C@H](O)[C@H]6O)C(C)(C)[C@@H]5CC[C@]43C)[C@@H]2[C@]1(C)O [Ziyuglycoside II, 3-O-α-L-arabinosyl-19α-hydroxyurs-12-en-28-oic acid]",numbers of NEUT and HGB in peripheral blood compared with model group,"2.5 mg/kg, P<0.05",did not show significant difference
same,"numbers of WBC, RBC, and PLT in peripheral blood compared with model group","2.5 mg/kg, P<0.05",did not show significant difference
same,HGB in peripheral blood,[1],44.65 ± 7.27 g/L
same,NEUT in peripheral blood,[1],2.47 ± 0.55 ×10^9
same,PLT in peripheral blood,[1],221.18 ± 6.15 ^ ×10^9
same,RBC in peripheral blood,[1],3.54 ± 0.11 ×10^12
same,WBC in peripheral blood,[1],3.71 ± 0.13 ×10^9
